Data published in a melting point compilation (Tetko et al.; mined from patent text by program, amines drawn as free bases though some values may be those of a salt).

| SMILES | melting point [°C] |
| --- | --- |
| CCOC(=O)c1cc(-c2ccncc2)[nH]c1N | 193 to 195 |
| CC(=O)C1C(C)CC2C3CCC4CC(O)CCC4(C)C3C(=O)CC21C (stereo not given) | 138 to 140 |
| Cc1cccc(NC(=O)NCC(=O)N(c2ccccc2)c2cccc(Cl)c2)c1 | 184 |
| C[C@@H](NC(=O)[C@@H](NC(=O)[C@H](CCCc1ccc(-c2ccccc2)c(Cl)c1)CC(=O)NO)C(C)(C)C)c1ccccc1 | 107 to 109 |
| CCOC(=O)C1=C(C)NC(=S)N(C(=O)OCC)C1c1cccc(C#N)c1 (stereo not given) | 155 to 156 |
| CCC1CCC(=O)C=C1c1ccc(OCC(=O)OC(C)(C)C(=O)O)c(Cl)c1Cl (stereo not given) | 167 to 168 |
| CCOC(=O)c1cc(-n2c(OCC)nc(C(F)(F)F)cc2=O)c(F)cc1Cl | 94 to 96 |
| N=C(N)c1cc2cc(F)c(F)cc2o1 | 178 |
| N#CC1C2OCC(O2)C(OCc2ccccc2)C1O (stereo not given) | 152 to 156 |
| Cc1nc(N)c2nc(C)n(CCCN)c2c1C | 192 |
| CCOC(C)=C(C#N)C(=O)Nc1ccccc1F | 158 to 160 |
| O=C(O)COc1ccc(C(=O)Nc2cccc(Cl)c2Cl)cc1 | 153 to 157 |
| Oc1cc(N=Nc2ccccn2)ccc1-c1ccc(-c2ccc(N=Nc3ccccn3)cc2O)o1 | 164 to 165 |
| CCN(CC)c1ccc2nc3c4ccccc4c(=Nc4nc5ccc(Cl)cc5s4)cc-3oc2c1 | 229 to 231 |
| CC1(C)C(=O)N(c2ccc(C#N)c(C(F)(F)F)c2)C(=O)N1CCCCCl | 80 to 81 |
| COc1ccc2c(c1Cl)S(=O)(=O)c1ccccc1N2C | 244 |
| CCOC(=O)c1ncc2[nH]c3ccc(Br)cc3c2c1COC | 207 to 209 |
| CCOP(=O)(OCC)N1C(=O)[C@@H](NC(=O)OC(C)(C)C)[C@@H]1C | 101 to 104 |
| CS(=O)(=O)c1ccc(-c2cnn(CC(F)(F)F)c(=O)c2Sc2nc[nH]n2)cc1 | 197 to 200 |
| COc1cc(NC(=O)OCCCN2CCC(c3nn(C)c4cc(F)ccc34)CC2)cc(OC)c1OC | 85 to 88 |

| SMILES | melting point [°C] |
| --- | --- |
| COC(=O)c1nnc(Cl)cc1Cl | 57 to 59.5 |
| Cc1ccc(S(=O)(=O)N2CCCC2c2cccnc2)cc1 (racemic) | 112 |
| O=S(=O)(C=CC(=Nc1ccccc1)Oc1ccccc1)c1ccccc1 | 110 to 116 |
| CC(C)CC(=O)Nc1cccc(-c2ccnc3c(-c4cccc(-c5ccccc5)c4)cnn23)c1 | 182 to 185 |
| CC(=O)N(O)Cc1ccc(C(O)C#Cc2ccsc2)cc1 (stereo not given) | 126 to 129 |
| Nc1cccc2c1ccn2S(=O)(=O)c1cccc2ccccc12 | 133 to 134 |
| Cn1c(C(=O)O)c(Oc2ccccc2N)c2ccccc21 | 193 to 194 |
| NCC1CCCC(CNc2ncc3ncnc(Nc4ccc(F)c(Cl)c4)c3n2)C1 (stereo not given) | 145 to 148 |
| CCCC(=NOCC)C1=C(O)CC(c2c(C)c(C)c(O)c(C)c2C)CC1=O (stereo not given) | 134 |
| CCOC(=O)C(=O)CSc1ccc(-c2ccccc2)cc1 | 154 to 156 |
| O=C(O)c1cc(S(=O)(=O)n2ccc3ccccc32)ccc1Br | 189 to 191 |
| C=C(CN(C)C)C(O)c1ncc2c(c1O)COC2c1ccc(F)cc1 (stereo not given) | 198 |
| O=c1cc(-c2nnn[nH]2)oc2cc(CCc3cccc(OCc4ccc5ccccc5n4)c3)ccc12 | 201 to 205 |
| O=C1CCCN1Cc1ccc2ccn(C3CCN(CCc4ccc(F)cc4)CC3)c2c1 | 106 to 108 |
| CCc1cc(-c2nc(C)c(-c3ccnc(Nc4ccc(N5CCOCC5)cc4)n3)s2)ccn1 | 214 to 215 |
| COc1ccc(C(=O)Nc2c(Cl)cncc2Cl)c2c1oc1ccc(NC(=O)C(F)(F)F)cc12 | > 300 |
| CCCCOCC(O)COc1ccc(-c2nc(-c3ccc(C)cc3C)nc(-c3ccc(C)cc3C)n2)c(O)c1 (stereo not given) | 80 to 83 |
| CC(C)CCNCC(O)C(CC(C)C)NC(=O)C(Cc1c[nH]cn1)NC(=O)C(CC(=O)NCCc1ccccc1)Cc1cccc2ccccc12 (mixture of isomers) | 92 to 97 |
| O=C(NC(c1ccccc1)c1cc2ccncc2[nH]1)c1ccccn1 (stereo not given) | 102 to 110 |
| O=C(CCCCCCCCC(=O)Oc1ccc(C(=O)OCc2ccccc2)cc1)Oc1ccc(C(=O)OCc2ccccc2)cc1 | 62.5 to 63 |

Now from value to compound:

| melting point [°C] | SMILES |
| --- | --- |
| 217 to 222 | COc1cc2c3c(cccc3c1N1CCC(N)C1)C(=O)N(O)C2=O (stereo not given) |
| 111 to 113 | O=C(O)CCC(=O)OCc1ccc(-c2nn(-c3ccc(Br)cc3)c3ccccc23)o1 |
| 208 to 211 | Cn1cnc2cc(NN)ccc2c1=O |
| 86 to 88 | CN(C)C=Nc1nc(OCOC(=O)C(C)(C)C)ncc1F |
| 156 | CCCc1nc(C)nc(NN)c1Cc1ccc(-c2ccccc2C#N)cc1 |
| 188 to 190 | Cc1c(C(=O)O)cnn1CC(F)(F)F |
| 92 to 93 | CCOC(=O)N1CCN(C2Cc3cc(Cl)ccc3Sc3ccccc32)CC1 (stereo not given) |
| 182 to 184 | Cc1ccc(-c2nc3cc([N+](=O)[O-])ccc3o2)o1 |
| 271 to 272 | O=C(O)c1cccc(-c2ccc(-c3ccc(C(F)(F)F)cc3)o2)c1 |
| > 275 | CC(C)C1NC(=O)[C@H](CS)NC1=O (stereo not given in full) |
| 63 to 66 | COc1cc(OC)c(C(=O)C=Cc2ccc(SC)cc2)c(OP(=O)(O)O)c1 |
| 98 to 100 | CCC(=O)CC(=O)OCCC#N |
| 40 to 43 | CC(C)(C)OC(=O)NCC(Cl)c1cccs1 (stereo not given) |
| 148 to 150 | N#Cc1c(Cl)nc2n(c1=O)CCS2 |
| 234 to 236 | CCOC(=O)c1[nH]c2cccnc2c1-c1ccc([N+](=O)[O-])cc1 |
| 203 to 207 | O=C(Nc1ccc(Cl)c(C(F)(F)F)c1)N[C@H]1CC[C@H](O)CC1 |
| 224 to 227 | COc1ccc2[nH]c3c(c2c1)C[C@@]1(C)C(=O)N(CCN2CCN(C)CC2)C(=O)N1[C@@H]3c1cccc(O)c1 (racemic) |
| 150 to 151 | CCC1(CC)OC(=O)Nc2ccc(-c3cccc(Cl)c3)cc21 |
| 65 to 66 | CC(=O)NC[C@@H]1C[C@H]1c1cccc2c1C[C@@H](CCCCc1ccccc1)O2 |
| 150 to 151 | O=C1CC(/C=C/c2ccccc2)=Nc2ccccc2N1Cc1ccccc1 |
| 137 to 138 | CC(C(=O)O)c1ccc(-n2cccn2)cc1 (stereo not given) |
| 254 to 255 | Nc1c(N=O)c(=O)n(CC2CCCC2)c(=O)n1CC1CCCC1 |
| 93.9 | OC(c1cccc(Br)c1)C1c2ccccc2CCc2ccccc21 (stereo not given) |
| 188 to 189 | COc1cc(C)c(C)cc1NC(=S)N1CCN(c2cc(Cl)cc(Cl)c2)CC1 |
| 125 to 126 | [N-]=[N+]=NCC(=O)Nc1ccc(S(=O)(=O)c2cccc(Cl)c2)cc1 |
| 137 to 139 | COc1ccc(C2CC(=O)C(C(=O)O)=CN2C2CC2)cc1 (stereo not given) |
| 57 to 59 | O=[N+]([O-])c1ccc(NCCc2ccccc2)cc1 |
| 174 to 175 | CCCc1nc2c(N)nc3cccnc3c2n1CCCCS(=O)(=O)NC |
| 234 to 236 | O=C(Nc1cc(Cl)cc(Cl)c1)Nc1ccc(Cl)cc1-c1nnn[nH]1 |
| 190 to 192 | N#Cc1cc(C(F)(F)F)ccc1Oc1ccc([N+](=O)[O-])c(C(=O)O)c1 |
